These results are taken from patent EP0907731B1, “METABOTROPIC GABA(B) RECEPTORS, RECEPTOR-SPECIFIC LIGANDS AND THEIR USES” (Novartis AG, priority 1996, dated 1997).

“Also recorded” adds a separate entry of the source. Like-named read-outs stand apart in the source and are kept apart here.

Experiment [1] deals with rat cortical slice preparations. Particulars: cited from earlier work.
Experiment [2] relates to non-transfected HEK293 cells. The experiment in a line: Forskolin-stimulated cAMP formation in non-transfected HEK293 cells (control). It counts as cell-based. As to conditions: untransfected HEK293 cells. How it is done: • Figure 1 a depicts the expression of the recombinant GABABR1a receptor in COS1 cells. […]. Autoradiography of a 6% SDS gel with 25µg protein loaded per lane is shown. […]. The apparent molecular weight of native and recombinant GABAB receptors are estimated from gel mobilities relative to those of SDS-PAGE standards (BioRad). […]. Cell membranes of the tissues indicated are photoaffinity-labelled with [[…] and subjected to SDS-PAGE and autoradiography. a, b, Selectivity of the photoaffinity ligand [[…]. a, Differential distribution of GABAB receptor variants of 130K and 100K in tissues of the nervous system. […]. Incubation of membrane extracts with the photoaffinity ligand is carried out in the presence of competitor substances at the concentrations indicated, c, GABAB receptors are N-glycosylated. Photoaffinity-labelled rat cortex cell membranes are incubated with 0.4 units N-glycosidase F or 0.6 milliunits O-glycosidase (Boehringer Mannheim). d, Photolabelling of GABAB receptors from different species. […]
GABAB receptors are described to inhibit adenylate cyclase activity, stimulate phospholipase A2, activate K^+-channels, inactivate voltage-dependent Ca^2+-channels and to modulate inositol phospholipid hydrolysis. […] The ability of GABABR1a stably expressed in HEK293 cells to reduce forskolin-stimulated CAMP accumulation is analysed (Fig. 5). […]

Experiment [3] deals with GABAB receptors. As to conditions: inhibition of [125I]CGP 64213 binding, native receptors; read-out: Rat cerebral cortex IC50.
Experimental: The animals are decapitated, the brains removed, the cerebral cortices dissected and homogenised in 10 volumes of ice-cold 0.32 M sucrose, containing MgCl2 (1 mM) and K2HPO4 (1 mM), with a glass/Teflon homogeniser. The membranes are centrifuged at 1000 x g for 15 min, the pellet resuspended and the centrifugation repeated. The supernatants are pooled and centrifuged at 20000 x g for 15 min. The pellet is osmotically shocked by resuspension in 10 volumes H2O and kept on ice for 30 min. […] The membranes are thawed at room temperature, washed three times with Krebs-Henseleit buffer by centrifugation at 20000 x g for 15 min, left overnight at 4°C and washed again three times. The final pellet is resuspended with a glass/Teflon homogenise in 20 ml of the same buffer. 2 ml aliquots are frozen and stored in liquid nitrogen. Just before use membranes are thawed quickly in a water bath at 37°C and again washed by centrifugation at 20000 x g for 15 min with the same buffer three times.
The incubation is terminated by filtration through GF/B Whatman glass fibre filters.
For experiment [4], the target named is recombinant GABABR1a receptors. Particulars: read-out: COS 1 cells IC50, inhibition of [125I]CGP 64213 binding.
Experimental: In order to isolate membranes containing the cloned GABAB receptor, culture dishes containing GABAB receptor-expressing COS cells are washed twice with Krebs-Henseleit-Tris buffer. Afterwards the cells are scraped off the dishes, homogenised in a glass-glass homogeniser and centrifuged for 30 min at 4°C at 40'000 g. The homogenisation and centrifugation step is repeated once. The pellet is resuspended in buffer and stored in liquid nitrogen until further analysis.
Experiment [5] has as its system native GABAB receptors. Kind of experiment: Photoaffinity labelling of membranes with [125I]CGP 71872 in the presence of competitor substances. The class given is binding, rat. As to the method:
The incubation is terminated by centrifugation at 20 000 x g for 10 min at 4°C. This step removed free unbound photoaffinity label. […] The suspension is centrifuged at 20 000 x g for 10 min and resuspended at a concentration of 8mg/ml protein in buffer. […] The labelled membranes could be stored at -80°C.
Furthermore, native GABAB receptors are photoaffinity-labelled in the presence of various competitor substances indicated in Figure 4b.

The target in experiment [6] is T1, GABABR1a (Rattus norvegicus, UniProt Q9Z0U4).
T1 construct: either the full-length cDNA clones disclosed herein or fragments thereof can be used as probes; expressed in transfected cells
The experiment in a line: Forskolin-stimulated cAMP accumulation in HEK293 cells stably expressing GABABR1a. It counts as cell-based. Particulars: 10 µM antagonist, 300 µM L-baclofen. An excerpt: GABAB receptors are described to inhibit adenylate cyclase activity, stimulate phospholipase A2, activate K^+-channels, inactivate voltage-dependent Ca^2+-channels and to modulate inositol phospholipid hydrolysis. As GABABR1a and -b have identical sequence in all domains predicted to be intracellular they are expected to be able to couple to the same effector systems. […] We chose concentrations of forskolin and L-baclofen that should produce a maximal effect.
A general note: Cyclic AMP is a second messenger, typically raised through Gs and lowered through Gi signalling.

T1 sequence (Q9Z0U4 20-960): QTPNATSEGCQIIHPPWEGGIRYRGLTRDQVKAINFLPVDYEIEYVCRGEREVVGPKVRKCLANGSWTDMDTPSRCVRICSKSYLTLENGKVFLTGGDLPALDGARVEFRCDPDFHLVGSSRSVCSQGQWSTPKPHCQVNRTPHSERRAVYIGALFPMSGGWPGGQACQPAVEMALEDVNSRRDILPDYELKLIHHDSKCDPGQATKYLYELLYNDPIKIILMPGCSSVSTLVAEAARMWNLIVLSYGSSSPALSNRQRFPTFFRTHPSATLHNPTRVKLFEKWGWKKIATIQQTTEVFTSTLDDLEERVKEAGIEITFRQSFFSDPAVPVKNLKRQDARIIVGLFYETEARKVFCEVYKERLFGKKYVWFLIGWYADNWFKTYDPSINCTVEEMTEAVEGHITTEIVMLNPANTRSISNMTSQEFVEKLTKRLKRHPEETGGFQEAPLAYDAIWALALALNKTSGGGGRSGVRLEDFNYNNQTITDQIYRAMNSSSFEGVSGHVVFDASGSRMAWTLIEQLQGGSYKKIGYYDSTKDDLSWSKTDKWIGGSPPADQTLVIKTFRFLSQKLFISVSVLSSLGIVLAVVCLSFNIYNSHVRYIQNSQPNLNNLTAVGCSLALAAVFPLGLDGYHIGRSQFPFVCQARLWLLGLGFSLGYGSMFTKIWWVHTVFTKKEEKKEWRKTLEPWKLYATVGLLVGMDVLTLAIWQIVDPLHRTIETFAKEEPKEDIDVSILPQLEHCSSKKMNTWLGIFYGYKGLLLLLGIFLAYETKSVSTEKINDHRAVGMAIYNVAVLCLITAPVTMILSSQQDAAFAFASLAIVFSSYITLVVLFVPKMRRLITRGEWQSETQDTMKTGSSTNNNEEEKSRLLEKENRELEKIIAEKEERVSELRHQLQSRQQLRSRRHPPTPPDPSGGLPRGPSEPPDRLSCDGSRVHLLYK

On to `NC[C@H](CC(=O)O)c1ccc(Cl)cc1` [L-baclofen], for which the “reduction of forskolin-stimulated cAMP accumulation” value in experiment [1] was “about 40%”. For the same compound, the “inhibition of forskolin-stimulated cAMP formation” value in experiment [2] is on record as “No L-baclofen response; also recorded: does not inhibit”.

On to `NCCCP(=O)(O)C(F)F` [CGP 47656], for which the IC50 – broadly, the midpoint of a concentration-inhibition curve – in experiment [3] is 0.28 µM; in experiment [4], 12.3 µM.

Take `C[C@H](NC[C@H](O)CP(=O)(O)CC1CCCCC1)c1ccc(Cl)c(Cl)c1` [CGP 54626A]: the “[125I]CGP 71872 labelling in the presence of excess unlabelled antagonist” value in experiment [5] is “no radioactivity is bound to the membranes”; in experiment [5] (listed as CGP54626A) it was “inhibited”. Further, the “effect on the L-baclofen inhibition of forskolin-stimulated cAMP accumulation” value in experiment [6] was “antagonised”.
